Test results taken from PMC6424229, “^68Ga-FAPI PET/CT: Biodistribution and Preliminary Dosimetry Estimate of 2 DOTA-Containing FAP-Targeting Agents in Patients with Various Cancers” (Journal of Nuclear Medicine, 2019).
Several values for one entry are separate records, joined by “and”; a condition that tells them apart may be missing. Equal values may be shown once. Read-outs that look alike come from different tables or passages of the source.

Legend:
[1] = tested on: tumor lesions; experiment: Serial PET/CT 10 min, 1 h and 3 h after injection (tracer kinetics, tumor retention); type: in vivo, patients; conditions: mean; one patient with metastasized breast cancer per tracer
Procedure: (§1) To approximate the dosimetry, imaging was performed 10 min, 1 h, and 3 h after injection of 306 MBq of ^68Ga-FAPI-2 in one patient and 258 MBq of ^68Ga-FAPI-4 in another patient.

[2] = tested on: tumor lesions; experiment: PET/CT tumor uptake (SUVmax) 1 h after injection; conditions: not statistically significant; for Uptake by tumors, average SUVmax: interindividual comparison, 25 patients per tracer
[3] = Radiation dosimetry estimate from serial PET/CT (QDOSE; OLINDA 1.1, IDAC-Dose 1.0/2.1); type: in vivo, patients; conditions: for Radiation exposure (effective dose) per 100 MBq: PET; for Radiation exposure (effective dose) per 100 MBq / Effective dose / Dosimetry estimate (OLINDA), Red marrow / Dosimetry estimate (OLINDA), Adrenals / Dosimetry estimate (OLINDA), Brain / Dosimetry estimate (OLINDA), Breasts / Dosimetry estimate (OLINDA), Gallbladder wall / Dosimetry estimate (OLINDA), Heart wall / Dosimetry estimate (OLINDA), Kidneys / Dosimetry estimate (OLINDA), Liver / Dosimetry estimate (OLINDA), Lower large intestine wall / Dosimetry estimate (OLINDA), Lungs / Dosimetry estimate (OLINDA), Muscle / Dosimetry estimate (OLINDA), Osteogenic cells / Dosimetry estimate (OLINDA), Ovaries / Dosimetry estimate (OLINDA), Pancreas / Dosimetry estimate (OLINDA), Skin / Dosimetry estimate (OLINDA), Small intestine / Dosimetry estimate (OLINDA), Spleen / Dosimetry estimate (OLINDA), Stomach wall / Dosimetry estimate (OLINDA), Testes / Dosimetry estimate (OLINDA), Thymus / Dosimetry estimate (OLINDA), Thyroid / Dosimetry estimate (OLINDA), Upper large intestine wall / Dosimetry estimate (OLINDA), Urinary bladder wall / Dosimetry estimate (OLINDA), Uterus / Dosimetry estimate (OLINDA), Total body: one patient per tracer; for Equivalent dose / radiation dose of one examination: examination with 200 MBq of 68Ga; for Dosimetry estimate (OLINDA), Red marrow: approximated from PET volume of interest in a lumbar vertebra; for Dosimetry estimate (OLINDA), Red marrow / Dosimetry estimate (OLINDA), Adrenals / Dosimetry estimate (OLINDA), Brain / Dosimetry estimate (OLINDA), Breasts / Dosimetry estimate (OLINDA), Gallbladder wall / Dosimetry estimate (OLINDA), Heart wall / Dosimetry estimate (OLINDA), Kidneys / Dosimetry estimate (OLINDA), Liver / Dosimetry estimate (OLINDA), Lower large intestine wall / Dosimetry estimate (OLINDA), Lungs / Dosimetry estimate (OLINDA), Muscle / Dosimetry estimate (OLINDA), Osteogenic cells / Dosimetry estimate (OLINDA), Ovaries / Dosimetry estimate (OLINDA), Pancreas / Dosimetry estimate (OLINDA), Skin / Dosimetry estimate (OLINDA), Small intestine / Dosimetry estimate (OLINDA), Spleen / Dosimetry estimate (OLINDA), Stomach wall / Dosimetry estimate (OLINDA), Testes / Dosimetry estimate (OLINDA), Thymus / Dosimetry estimate (OLINDA), Thyroid / Dosimetry estimate (OLINDA), Upper large intestine wall / Dosimetry estimate (OLINDA), Urinary bladder wall / Dosimetry estimate (OLINDA), Uterus / Dosimetry estimate (OLINDA), Total body: unit not given; for Dosimetry estimate (OLINDA), Adrenals / Dosimetry estimate (OLINDA), Brain / Dosimetry estimate (OLINDA), Breasts / Dosimetry estimate (OLINDA), Gallbladder wall / Dosimetry estimate (OLINDA), Heart wall / Dosimetry estimate (OLINDA), Kidneys / Dosimetry estimate (OLINDA), Liver / Dosimetry estimate (OLINDA), Lower large intestine wall / Dosimetry estimate (OLINDA), Lungs / Dosimetry estimate (OLINDA), Muscle / Dosimetry estimate (OLINDA), Osteogenic cells / Dosimetry estimate (OLINDA), Ovaries / Dosimetry estimate (OLINDA), Pancreas / Dosimetry estimate (OLINDA), Skin / Dosimetry estimate (OLINDA), Small intestine / Dosimetry estimate (OLINDA), Spleen / Dosimetry estimate (OLINDA), Stomach wall / Dosimetry estimate (OLINDA), Testes / Dosimetry estimate (OLINDA), Thymus / Dosimetry estimate (OLINDA), Thyroid / Dosimetry estimate (OLINDA), Upper large intestine wall / Dosimetry estimate (OLINDA), Urinary bladder wall / Dosimetry estimate (OLINDA), Uterus: organ dose
Procedure: as §1
The dosimetry analysis was performed using the QDOSE dosimetry software suite (ABX-CRO). Kidneys, liver, spleen, urinary bladder content, red marrow, heart content, and remainder of body were included as source organs. Because of blood sampling failure due to poor vein conditions, the red marrow dose was approximated using the activity segmented with volume-of-interest technique in the PET scans. The non–tumor-affected lumbar vertebrae 5 (^68Ga-FAPI-2) and 4 (^68Ga-FAPI-4) were assumed to contain 2.46% of the total red marrow ([6]). Using QDOSE, all CT images were coregistered using an automatic deformable coregistration. PET images were coupled to the CT images of the corresponding imaging session. The PET images were transformed according to the transformation matrix of the coupled CT. The volumes of interest of all segmented source organs were drawn in the examination that had the best organ delineation and then were copied onto all other time points to calculate the time–activity curves. Monoexponential curve fitting was then applied to all organ time–activity curves. The cumulative activity Ã between time 0 and the first measured time point was calculated assuming a linear increase from 0 to the first measured activity. The Ã between the first measured time point and the last measured time point was integrated numerically using trapezoidal approximation. The Ã from the last measured time point to infinity was integrated using the fitted function. The total-body Ã was based on the injected activity and the calculated effective half-life in a total-field-of-view volume of interest, assuming that the limbs behave similar to the torso. This approach was chosen because some parts of the body were not in the field of view of the PET/CT device. The Ã values of total body and red marrow were added as organs into QDOSE. The Ã of the remainder of the body was then automatically calculated by subtracting all source-organ Ã values from the total-body Ã. All source-organ residence times were calculated by dividing the Ã by the injected activity. Absorbed and effective dose calculations were performed using the International Commission on Radiological Protection (ICRP)–endorsed IDAC-Dose 2.1 and IDAC-Dose 1.0 ([7]), which are integrated in QDOSE. In addition, the residence times of all included source organs and remainder of body were exported as an OLINDA case file for dose calculation in OLINDA 1.1 ([8]). Both IDAC-Dose 1.0 and OLINDA 1.1 are based on the Cristy–Eckerman stylized phantom series ([9]). IDAC-Dose 2.1 is based on the ICRP adult reference computational phantoms ([10]) and the ICRP-specific absorbed fractions ([11]). Organ masses were not adapted to individual subject organ masses.

[4] = PET/CT normal-organ / background uptake (SUVmax) 1 h after injection; conditions: for Unspecific uptake in locations of wound healing after surgical intervention, average SUVmax: interindividual comparison, 25 patients per tracer, not statistically significant
[5] = literature value, cited from earlier work
[6] = intraindividual comparison of 6 patients

Row | SMILES | Decline of tumor uptake (washout) from 1 h to 3 h after injection [1] | Uptake by tumors, average SUVmax [2] | Radiation exposure (effective dose) per 100 MBq [3] | Effective dose ([3]; calculated with IDAC1/ICRP60) | Effective dose ([3]; calculated with IDAC2/ICRP103) | Effective dose ([3]; calculated with OLINDA) | Equivalent dose / radiation dose of one examination [3] | Dosimetry estimate (OLINDA), Red marrow [3] | Dosimetry estimate (OLINDA), Adrenals [3] | Dosimetry estimate (OLINDA), Brain [3] | Dosimetry estimate (OLINDA), Breasts [3] | Dosimetry estimate (OLINDA), Gallbladder wall [3] | Dosimetry estimate (OLINDA), Heart wall [3] | Dosimetry estimate (OLINDA), Kidneys [3] | Dosimetry estimate (OLINDA), Liver [3] | Dosimetry estimate (OLINDA), Lower large intestine wall [3] | Dosimetry estimate (OLINDA), Lungs [3] | Dosimetry estimate (OLINDA), Muscle [3] | Dosimetry estimate (OLINDA), Osteogenic cells [3] | Dosimetry estimate (OLINDA), Ovaries [3] | other results
1 | N#C[C@@H]1CCCN1C(=O)CNC(=O)c1ccnc2ccc(OCCCN3CCN(C(=O)CN4CCN(CC(=O)O)CCN(CC(=O)O)CCN(CC(=O)O)CC4)CC3)cc12 [^68Ga-FAPI-2, metal not drawn] | 75% | 8.37 | 1.4 mSv/100 MBq and 1.4–1.8 mSv/100 MBq | 1.82E−2 mSv/MBq | 1.79E−2 mSv/MBq | 1.80E−2 mSv/MBq and 1.80E−02 mSv/MBq | 3–4 mSv | 3.28E−02 | 1.23E−02 | 9.54E−03 | 9.58E−03 | 1.19E−02 | 4.73E−02 | 4.45E−02 | 1.51E−02 | 1.23E−02 | 1.09E−02 | 1.04E−02 | 2.94E−02 | 1.24E−02 | Tumor uptake, average SUVmax [2, 6]: 7.37; Dosimetry estimate (OLINDA), Pancreas [3]: 1.23E−02; Dosimetry estimate (OLINDA), Skin [3]: 9.01E−03; Dosimetry estimate (OLINDA), Small intestine [3]: 1.19E−02; Dosimetry estimate (OLINDA), Spleen [3]: 2.62E−02; Dosimetry estimate (OLINDA), Stomach wall [3]: 1.13E−02; Dosimetry estimate (OLINDA), Testes [3]: 1.04E−02; Dosimetry estimate (OLINDA), Thymus [3]: 1.15E−02; Dosimetry estimate (OLINDA), Thyroid [3]: 1.03E−02; Dosimetry estimate (OLINDA), Upper large intestine wall [3]: 1.17E−02; Dosimetry estimate (OLINDA), Urinary bladder wall [3]: 8.89E−02; Dosimetry estimate (OLINDA), Uterus [3]: 1.33E−02; Dosimetry estimate (OLINDA), Total body [3]: 1.19E−02; Unspecific uptake in locations of wound healing after surgical intervention, average SUVmax [4]: 7.07; Background uptake in brain, average SUVmax [4, 6]: 0.32; Background uptake in liver, average SUVmax [4, 6]: 1.69; Background uptake in oral/pharyngeal mucosa, average SUVmax [4, 6]: 2.57; Uptake in all other organs compared with 18F-FDG ([4]; organs other than brain, liver, oral/pharyngeal mucosa, 6 patients): no significant difference
2 | N#C[C@@H]1CC(F)(F)CN1C(=O)CNC(=O)c1ccnc2ccc(OCCCN3CCN(C(=O)CN4CCN(CC(=O)O)CCN(CC(=O)O)CCN(CC(=O)O)CC4)CC3)cc12 [^68Ga-FAPI-4, metal not drawn] | 25% | 10.07 | 1.8 mSv/100 MBq and 1.4–1.8 mSv/100 MBq | 1.66E−2 mSv/MBq | 1.35E−2 mSv/MBq | 1.64E−2 mSv/MBq and 1.64E−02 mSv/MBq | 3–4 mSv | 2.08E−02 | 1.12E−02 | 9.11E−03 | 8.88E−03 | 1.13E−02 | 2.02E−02 | 4.43E−02 | 1.46E−02 | 1.17E−02 | 9.89E−03 | 9.91E−03 | 2.16E−02 | 1.19E−02 | Dosimetry estimate (OLINDA), Pancreas [3]: 1.13E−02; Dosimetry estimate (OLINDA), Skin [3]: 8.63E−03; Dosimetry estimate (OLINDA), Small intestine [3]: 1.13E−02; Dosimetry estimate (OLINDA), Spleen [3]: 1.05E−02; Dosimetry estimate (OLINDA), Stomach wall [3]: 1.06E−02; Dosimetry estimate (OLINDA), Testes [3]: 1.01E−02; Dosimetry estimate (OLINDA), Thymus [3]: 1.01E−02; Dosimetry estimate (OLINDA), Thyroid [3]: 9.82E−03; Dosimetry estimate (OLINDA), Upper large intestine wall [3]: 1.11E−02; Dosimetry estimate (OLINDA), Urinary bladder wall [3]: 9.91E−02; Dosimetry estimate (OLINDA), Uterus [3]: 1.30E−02; Dosimetry estimate (OLINDA), Total body [3]: 1.09E−02; Unspecific uptake in locations of wound healing after surgical intervention, average SUVmax [4]: 6.76
3 | O=C([O-])CN(CCN(CC(=O)[O-])Cc1cc(CCC(=O)NCCCCCC(=O)NCCCC[C@H](NC(=O)N[C@@H](CCC(=O)O)C(=O)O)C(=O)O)ccc1[O-])Cc1cc(CCC(=O)O)ccc1[O-].[68Ga+3].[OH3+] [^68Ga-PSMA-11] | – | – | – | – | – | – | – | – | – | – | – | – | – | – | – | – | – | – | – | – | Effective dose [5]: 1.6–2.4 mSv/100 MBq
4 | O=C([O-])CN1CCN(CC(=O)[O-])CCN(CC(=O)NC[C@H]2CC[C@H](C(=O)N[C@@H](Cc3ccc4ccccc4c3)C(=O)NCCCC[C@H](NC(=O)N[C@@H](CCC(=O)O)C(=O)O)C(=O)O)CC2)CCN(CC(=O)[O-])CC1.[68Ga+3] [^68Ga-PSMA-617] | – | – | – | – | – | – | – | – | – | – | – | – | – | – | – | – | – | – | – | – | Effective dose ([5]; no reference of its own printed): 2.1 mSv/100 MBq
